Measurements as given in patent US20250206754A1, “PAN-CHEMOKINE ANTAGONISTS FOR USE IN TREATING CANCER AND IMMUNE DISORDERS” ("Micar Innovation" LTD., priority 2022, published 2025).

System: CCL2 release
Settings: Homo sapiens, Keratinocyte, read-out: EC50, CCL2 release
Protocol: For this purpose a model for the inhibition of CCL2 release from IL-4, IL-13, IL-22 and IFNγ-stimulated primary human keratinocytes (Eczematous inflammation) was used and also an assay for the inhibition of IL-8 release from IL-17A and TNFα (Psoriatic inflammation). […] Finally, migration assay by MB231cell line was performed.

## NC(=O)c1ccccc1Oc1ncnc2sc(-c3ccccc3)cc12 [Hit 1, 2-({6-phenylthieno[2,3-d]pyrimidin-4-yl}oxy)benzamide]
  EC50: 411 nM
